Reference: PMC3958483, “Fine Specificity and Molecular Competition in SLAM Family Receptor Signalling” (PLoS ONE, 2014)
Values belong to the compound of their own block, whether it stands above or below them. Non-standard residues stand in square brackets, D forms with d. Residues, ends and D or L forms follow the SMILES beside them. *: point of attachment. Biotin = O=C1N[C@H]2[C@H](CS[C@H]2CCCCC(=O)*)N1; pY = N[C@@H](Cc1ccc(OP(=O)(O)O)cc1)C(=O)O

Legend:
[1] = Pull-down with EAT-2 Y127 phosphopeptide from NK92 lysates, LC-MS/MS; format: binding, human; conditions: NK92 cell lysates
Method: (§1) For pull-down of associated proteins, streptavidin Sepharose (GE Healthcare) was pre-coated with saturating amounts of peptide or EAT-2. NK92 cells (4×10^8) were treated with 500 μM pervanadate for 15 minutes, then lysed in PBS, 1% Triton X-100, 1 mM sodium orthovanadate in the presence of mammalian protease inhibitor solution (Sigma). Lysates were pre-cleared by centrifugation, followed by incubation with streptavidin Sepharose. Peptide or EAT-2-coated streptavidin beads were incubated with NK92 lysates for 2 hours at 4°C with rotation. Beads were washed once with 15 ml ice cold PBS/1% (v/v) Triton X-100. Bound protein was eluted using 100 mM glycine-HCl pH 2.5.
Protein samples were prepared for mass spectrometry as described previously. Briefly, eluted proteins were spun onto the membranes of Vivacon 500 filters (10,000 MWCO – Sartorius). Membranes were washed once with PBS then proteins were denatured with 8 M urea, reduced with 10 mM DTT in 25 mM ammonium bicarbonate buffer, followed by alkylation with 50 mM iodoacetamide. Proteins were then digested overnight with trypsin. Tryptic peptides were then eluted from the membrane and analyzed on an Ultimate 3000 HPLC-coupled Orbitrap XL mass spectrometer. […] Raw data files were converted to mzXML format using ReADW (v. 4.2.1) and submitted to the Central Proteomics Facilities Pipeline for database comparison and peptide identification. […]

[2] = biological target: T1, SHP-2 (SH2-SH2) (Homo sapiens, UniProt Q06124); assay: SPR binding of SHP-2 tandem (N+C) SH2 domains to immobilised phosphopeptides; conditions: 37°C, SHP2 N+C SH2, equilibrium binding fit shown in Figure 6D
T1 construct: OPPF catalogue number 3911; aa 2–219, EC = 23,045 M^−1 cm^−1; His-tag; host or cells: E. coli BL21(DE3)pLysS
T1 sequence (Q06124 2-219): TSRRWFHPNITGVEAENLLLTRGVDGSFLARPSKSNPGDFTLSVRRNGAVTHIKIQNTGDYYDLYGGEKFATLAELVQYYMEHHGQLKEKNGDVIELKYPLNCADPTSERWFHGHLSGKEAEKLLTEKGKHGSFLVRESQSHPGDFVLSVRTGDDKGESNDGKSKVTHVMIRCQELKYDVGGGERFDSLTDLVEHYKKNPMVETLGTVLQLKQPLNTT
Excerpt: Biotinylated EAT-2 was produced by expression of full length human EAT-2 with a C-terminal BirA tag ([…]) in the E coli expression vector pTrcHisA. Constructs encoding the 6xHis-tagged tandem SH2 domains plus the SH3 domains of PLCγ1 (Swiss-Prot: P19174, aa 536–863) and PLCγ2 (Swiss-Prot: P16885, aa 519–838) were generated in pTrcHisA (5′ joining sequence with BglII site underlined: gag atc tcc translates as EIS). The molecular weight (MW) and theoretical extinction coefficients (EC) of recombinant PLCγ1 and PLCγ2 SH2-SH2-SH3 domains were PLCγ1; MW = 42531, EC = 63,830 M^−1 cm^−1 and PLCγ2; MW = 42415, EC = 67,270 M^−1 cm^−1.
Measurements of protein-protein affinity were performed on BIAcore 3000 and T200 systems using CM5 or biotin capture chips (GE Healthcare Ltd, UK). Streptavidin was coupled to CM5 sensor chips using standard NHS/EDC chemical linkage, followed by immobilization of biotinylated peptides. […] Equilibrium binding coefficients and dissociation and association rates were calculated using BIAevaluation and/or GraphPad Prism 5.4 software.
Binding of inhibitory tyrosine phosphatases through their SH2 domains to ITIMs is enhanced by phosphorylation of two tyrosine motifs which are appropriately spaced. […] We measured binding of SHP-2 tandem SH2 domains (recombinant SHP-1 SH2 domains were unstable in solution) to tandem ITSMs in CD244 (Figure 6B and Table 4). […]

[3] = tested on: NK92 cells; assay: IFNγ production by NK92 cells; format: cell-based, human; conditions: TJW, unpublished
[4] = Pull-down with phosphorylated CD244 ITSM1 from NK cell lysates, LC-MS/MS; format: binding; conditions: human NK cell lysates; compared with control phosphopeptide SHIP-1 Y865
Method: as §1
Protein samples were prepared for mass spectrometry as described previously. Briefly, eluted proteins were spun onto the membranes of Vivacon 500 filters (10,000 MWCO – Sartorius). Membranes were washed once with PBS then proteins were denatured with 8 M urea, reduced with 10 mM DTT in 25 mM ammonium bicarbonate buffer, followed by alkylation with 50 mM iodoacetamide. Proteins were then digested overnight with trypsin. Tryptic peptides were then eluted from the membrane and analyzed on an Ultimate 3000 HPLC-coupled Orbitrap XL mass spectrometer. Proteins were identified by liquid chromatography-coupled tandem mass-spectrometry (LC-MS/MS). Raw data files were converted to mzXML format using ReADW (v. 4.2.1) and submitted to the Central Proteomics Facilities Pipeline for database comparison and peptide identification. Searching against the International Protein Index (IPI) human protein sequence database for protein identification, protein and peptide hits were statistically validated by applying a 1% false discovery rate (FDR) by searching against a concatenated target/decoy database. Datasets were searched with variable peptide modifications for phosphotyrosine, phosphoserine, phosphothreonine, oxidation of methionine and deamination.
Protein identification data were exported into ProteinCenter (v3.8.3013 – Thermo Fisher) for filtering and annotation. Results were filtered to remove any proteins with less than 3 unique peptides, less than 10 percent sequence coverage, or median protein probability scores less than 0.5. To establish sample specificity, any protein with at least 10-fold greater sequence coverage in one sample compared with the other was considered to be specific for that sample.
Similarly, differences in specificity of inhibitory SH2 domain containing proteins for ITSMs are relevant to understanding mechanisms of inhibition by ITSMs. We focused on CD244 ITSMs to establish general paradigms.

Compound: Fyn: Src-family kinase
pull-down by EAT-2 Y127 [1]: Notably absent from this list

Kd [2]: 2400 nM
Compound: CC[C@H](C)[C@H](NC(=O)[C@H](CCSC)NC(=O)[C@H](CO)NC(=O)[C@H](Cc1ccc(OP(=O)(O)O)cc1)NC(=O)[C@@H](NC(=O)[C@@H](NC(=O)[C@H](CO)NC(=O)CNC(=O)CNC(=O)CNC(=O)[C@@H]1CCCN1C(=O)[C@H](Cc1ccccc1)NC(=O)[C@@H](NC(=O)[C@H](CCC(N)=O)NC(=O)[C@H](CCC(=O)O)NC(=O)[C@H](CCC(N)=O)NC(=O)[C@H](CCC(=O)O)NC(=O)[C@H](Cc1c[nH]cn1)NC(=O)[C@H](CC(N)=O)NC(=O)[C@H](CCCNC(=N)N)NC(=O)[C@H](CCCNC(=N)N)NC(=O)[C@@H](NC(=O)[C@H](CCCCN)NC(=O)[C@H](CC(C)C)NC(=O)[C@H](CC(=O)O)NC(=O)[C@H](CCCCN)NC(=O)[C@@H](NC(=O)[C@H](CC(=O)O)NC(=O)[C@H](CCC(=O)O)NC(=O)[C@H](Cc1ccc(OP(=O)(O)O)cc1)NC(=O)[C@@H](NC(=O)[C@@H](NC(=O)[C@H](CC(C)C)NC(=O)[C@H](Cc1ccccc1)NC(=O)[C@H](CCC(=O)O)NC(=O)CCCC[C@@H]1SC[C@@H]2NC(=O)N[C@@H]21)[C@@H](C)O)[C@@H](C)CC)C(C)C)[C@@H](C)O)[C@@H](C)O)[C@@H](C)O)[C@@H](C)CC)C(=O)N[C@@H](CCC(N)=O)C(=O)N[C@@H](CO)C(=O)O [CD244 ITSM1+ITSM2] (Biotin-EFLTI[pY]EDVKDLKTRRNHEQEQTFPGGGSTI[pY]SMIQS-OH)

Compound: PLCγ1: phospholipase C gamma-1
effect on IFNγ production by NK92 cells [3]: inhibitory | pull-down by CD244 ITSM1 [4]: pulled down by the ITSM peptide
